# Test results published in patent publication US20140328940A1, “MODULATION OF AXON DEGENERATION” (Genentech, Inc., priority 2009, published 2014).
# “Also recorded” adds a separate entry of the source.
# Assays:
# [1] = test system: DRG neurons (axon vs. cell body compartment); experiment: Campenot chamber local axon degeneration (anti-NGF in axon compartment); type: cell-based, mouse
# Protocol: Teflon dividers (Tyler Research) were cleaned by washing in water and wiping them clean of any residual grease. Dividers were then soaked in Nochromix (Godax Laboratories)/sulfuric acid overnight, rinsed five times in distilled and autoclaved water (SQ water), boiled for 30 minutes, and then air-dried before use
# Mouse laminin (5 μg/ml in sterile filtered water; Invitrogen) was added to PDL coated 35 mm dishes (BD Biosciences) and they were incubated for 1 hour at 37° C., followed by two rinses in SQ water. The dishes were vacuum-dried and then air-dried in a laminar flow hood for 15 minutes. Prepared dishes were then scored with a pin rake (Tyler Research). […] High vacuum grease (VWR) was added to each Teflon divider under a dissection scope. The laminin coated PDL dishes were inverted and dropped onto the Teflon divider, with additional pressure added by use of a toothpick in the non-track-containing regions. Dishes were incubated for 1 hour at 37° C. Five hundred microliters of NBM+MC (50 ng/ml NGF) solution was added to each of the side compartments, and a grease barrier was added in front of the center cell slot.
# Free E13.5 spinal cords were dissected from mouse embryos and placed into NBM+MC (25 ng/ml NGF) solution. DRGs were detached from the spinal cord with a tungsten needle. An NBM+MC-lubricated P200 pipette was used to move DRGs into a 1.5 ml tube. DRGs were pelleted with a tabletop centrifuge for 30 seconds. The supernate was discarded and 0.05% Trypsin/EDTA (cold) was added. The pellet was resolubilized with a pipette and incubated at 37° C. for 15 minutes with constant agitation (650 RPM). The sample was again centrifuged and the supernate discarded. The pellet was resuspended in warm NBM+MC (50 ng/ml NGF) solution and triturated with a flamed glass pipette 20 times, followed by trituration with a fire-bored glass pipette another 20 times. The samples were again centrifuged and the resulting pellets were resuspended in 0.5 ml NBM+MC (50 ng/ml NGF) solution. The cells were diluted to a final concentration of 2.5×10^6 cells/ml. The cell suspensions were loaded into a 1 ml syringe with a 22 gauge needle. The center slot of the Campenot divider was filled using the syringe (to a volume of at least 50 μl). The Campenot chamber was incubated overnight at 37° C. 2.5 ml NGF+MC (50 ng/ml NGF) solution was added to the center compartment and the grease gate was removed. The outer medium (cell body compartment) was replaced after three days with 2.5 ml NBM+MC medium (with 25 ng/ml NGF). After five days in culture, one distal compartment was washed three times with warmed NBM+MC (no NGF) solution. After the third wash, 500 μl NBM+MC (no NGF) solution was added to the axon compartment in combination with either 0.5% DMSO or an inhibitor. The cell body compartment was replaced with 2.5 ml NBM+MC medium (with 25 ng/ml NGF) containing either 0.5% DMSO or inhibitor.
# After 28 hours of anti-NGF antibody treatment, 8% PFA/30% sucrose solution (see above) was added directly to the culture medium at a 1:1 dilution and incubated for 30 minutes. The Teflon divider was removed after the first 15 minutes of addition. The system was washed once with 2.5 ml PBS prior to immunostaining. Neurons were blocked in 5% BSA/0.2% triton in PBS for 30 minutes. The primary antibody Tuj1 (Covance) was added to a final dilution of 1:1000 in PBS containing 2% BSA and incubated overnight at 4° C. The dish was washed once with PBS. […] The dish was washed twice with PBS, and a 22×22 mm coverslip (VWR) was added with 350 μl of fluoromount G (Electron Microscopy Sciences). The neurons were visualized by use of a fluorescence microscope.
# As described above, E13.5 DRGs were isolated and grown for 5 days in a Campenot chamber.
# [2] = test system: cerebellar granule neurons (CGNs); experiment: serum deprivation/KCl reduction degeneration of cerebellar granule neurons; type: cell-based, mouse; conditions: 5 mM KCl, 24 hours
# ErbB kinase [3] = conditions: read-out: Cellular IC50; heregulin induced tyrosine phosphorylation, MDA-MB-453 cells; published source; cited from earlier work
# ErbB kinase [4] = target: ErbB kinase (Homo sapiens, UniProt P04626); conditions: protein tyrosine phosphorylation, 3T3-Her2 cells; published source; read-out: Cellular IC50; cited from earlier work
# ErbB kinase (Homo sapiens, UniProt P04626), sequence (P04626 23-1255): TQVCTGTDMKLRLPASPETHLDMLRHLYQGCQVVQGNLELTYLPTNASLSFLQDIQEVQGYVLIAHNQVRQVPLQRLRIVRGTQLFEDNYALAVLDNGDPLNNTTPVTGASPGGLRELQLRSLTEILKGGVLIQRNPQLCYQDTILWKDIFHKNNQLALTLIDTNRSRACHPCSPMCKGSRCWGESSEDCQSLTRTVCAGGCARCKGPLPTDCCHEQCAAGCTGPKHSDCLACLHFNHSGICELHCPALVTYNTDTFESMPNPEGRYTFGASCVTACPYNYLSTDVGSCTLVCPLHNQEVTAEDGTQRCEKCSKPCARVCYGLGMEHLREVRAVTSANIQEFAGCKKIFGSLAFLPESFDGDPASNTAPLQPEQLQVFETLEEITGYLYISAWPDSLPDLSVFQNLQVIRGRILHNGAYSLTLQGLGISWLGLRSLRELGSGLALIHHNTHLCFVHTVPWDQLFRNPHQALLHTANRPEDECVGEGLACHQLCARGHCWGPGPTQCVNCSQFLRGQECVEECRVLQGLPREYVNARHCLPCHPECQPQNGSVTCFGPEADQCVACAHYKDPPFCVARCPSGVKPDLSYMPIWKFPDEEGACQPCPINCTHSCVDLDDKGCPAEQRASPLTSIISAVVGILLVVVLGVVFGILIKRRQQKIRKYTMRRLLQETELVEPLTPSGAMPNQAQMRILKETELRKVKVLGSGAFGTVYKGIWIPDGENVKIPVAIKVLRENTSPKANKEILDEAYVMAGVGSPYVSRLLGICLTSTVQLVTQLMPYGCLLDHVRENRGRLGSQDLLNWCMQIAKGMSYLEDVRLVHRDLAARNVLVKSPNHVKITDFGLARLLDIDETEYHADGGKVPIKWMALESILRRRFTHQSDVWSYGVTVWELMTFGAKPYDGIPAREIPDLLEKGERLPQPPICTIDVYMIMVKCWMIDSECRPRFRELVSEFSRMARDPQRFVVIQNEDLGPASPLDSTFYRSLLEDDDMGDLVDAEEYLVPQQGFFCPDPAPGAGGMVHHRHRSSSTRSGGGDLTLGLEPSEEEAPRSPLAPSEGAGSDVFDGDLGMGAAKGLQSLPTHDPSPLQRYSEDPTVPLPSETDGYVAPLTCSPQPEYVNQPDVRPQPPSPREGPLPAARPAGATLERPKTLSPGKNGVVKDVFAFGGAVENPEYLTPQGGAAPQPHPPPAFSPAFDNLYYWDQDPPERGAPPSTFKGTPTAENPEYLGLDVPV
# [5] = peripheral neuropathy in patients treated with paclitaxel (adverse event analysis); type: in vivo, human; conditions: combination with paclitaxel; first 400 patients enrolled; placebo+paclitaxel 26.4%; p=0.012 Fisher's exact
# From the text: Tarceva® (erlotinib) is an EGFR kinase inhibitor. Treatment of patients with paclitaxel and other chemotherapeutic agents is known to lead to peripheral neuropathy (reviewed in Wilkes, Semin. Oncol. Nurs. 23(3):162-173, 2007).
# [6] = test system: dorsal spinal cord explants; experiment: dorsal spinal cord (DSC) explant degeneration; type: cell-based; conditions: 3.4 μM, 11.1 μM, 33.3 μM, and 100 μM
# From the text: DSCs grow out axons over a period of days, but if they are not rescued with the addition of a survival factor, they will eventually degenerate.
# [7] = toxin-induced degeneration of sympathetic neurons (MTT assay); type: cell-based; conditions: Sprague-Dawley, rat, primary sympathetic neurons from cervical ganglia, 24 hour camptothecin, read-out: % viability (normalized)
# Protocol: Sympathetic cervical ganglia were dissected from postnatal day 1 Sprague-Dawley rats (Charles River Labs) and collected in a dish containing Ultraculture media (Lonza) with 5% fetal bovine serum (Invitrogen). Ganglia were washed twice with serum-free Ultraculture media, and a final concentration of 0.1% trypsin (Worthington) was added and incubated with the tissue at 37° C. for 30 minutes. One percent DNase (Roche) solution in PBS was added to the ganglia and incubated at room temperature for 1-2 minutes. Ganglia were washed with Ultraculture and allowed to settle to the bottom of the tube. All wash media were removed and 1 mL plating media containing Ultraculture, 5% rat serum, 1% penicillin-streptomycin, 1% glutamax, 7 μM cytosine arabinoside (Sigma), and 50 ng/mL nerve growth factor (2.5S, Cedarlane Laboratory) was added to the tube. Ganglia were dissociated by trituration using a pipet (Rainin). The cell slurry was filtered over a […] cell strainer (Falcon) and cell number was counted. Sympathetic neurons were plated at a density of 5000-7500 cells/well (96-well dish), 200,000 cells/well (6-well plate), or 100,000 cells/well (8-well chamber slide) and grown for 4-5 days in 5% CO2 at 37° C. Every other day neurons were fed with fresh plating media containing 5-10 ng/mL NGF.
# NGF withdrawal assays were performed as described in Example 14A. […]
# [8] = test system: dorsal root ganglion neurons; experiment: EGF addition to DRG neurons maintained in NGF: degeneration; type: cell-based, mouse; conditions: 100 μg/mL EGF
# Protocol: Experiments were carried out to assess the effects of activation of EGFR by ligands, including EGF.
# (§1) Dorsal Root Ganglia (DRG) immunoblots were prepared as follows. Primary cells used in the experiments were Charles River CD-1 E13 Dorsal Root Ganglia (DRG). The cells were maintained in N3/F12 (+25 ng/ml NGF) medium (Ham's F12 (23 ml), N3 supplement (1 ml), glucose (1 ml of 1 M glucose stock), 25 ng/ml Nerve Growth Factor 2.5 S, mouse (Roche 11362348001) in Ham's F12 (stock: 50 μg/ml-80° C.), which was filter-sterilized prior to use). The experiments also employed Triton lysis buffer (20 mM Tris pH 7.5, 150 mM NaCl, 0.1% Triton-X100, 100× Phosphatase inhibitor cocktail I (added fresh), 100× Phosphatase inhibitor cocktail II (added fresh), 1 tablet/10 ml Protease inhibitor tablet (added fresh)).
# DRG explants were prepared on Day 0. Embryo dissections were carried out in L15 medium (dissection tools were soaked in 70% isopropanol, and dishes were set up on ice: 10 cm dishes (4 embryos per dish) and one 6 cm dish for spinal cords). E13.5 spinal cords were extracted into DMEM+10% FBS. […]
# (§2) The goal of these experiments was to see if activation of EGFR by EGF would be sufficient to drive degeneration. […] To ensure that EGF is capable of activating EGFR/ErbBs in the neuronal cultures used in these assays, ERK activation was assessed (ERK is a downstream target of EGFR).
# ERK = ERK activation by EGF in DRG cultures (Western blot); type: cell-based, mouse; conditions: 100 μg/mL EGF; 30 minutes to 1 hour
# Protocol: as §1
# DRG explants were prepared on Day 0. […]
# Immunoblotting was carried out by aspiration of media with a pipette tip, washing twice with ice-cold sterile PBS, and removal of all PBS using an aspirator with a pipette tip or kimwipes. […] Quantification was carried out by choosing a background method and standard bands that minimize negative/counter-intuitive values: i.e., top/bottom, right/left, user-defined (user-defined). […]
# as §2
# DRGs = experiment: G-protein/GPCR inhibitors in NGF withdrawal-induced degeneration in DRGs; type: cell-based, mouse; conditions: 0.01 μg/mL, 0.1 μg/mL, or 1 μg/mL (FIG. 51)
# Protocol: The assays described herein identified several inhibitors of G-proteins and G-protein coupled receptors (GPCRs) that decrease degeneration in neurons. Experiments were performed in DRGs to verify the role of G-proteins and GPCRs in degeneration pathways. The experimental protocols used in these experiments are the same as those described in Example 14. Pertussis toxin and SCH 202676 were purchased from Tocris Bioscience.
compound,measurement,setting,value
N#C/C(=C\c1ccc(O)c(O)c1)C(=O)NCCCc1ccccc1 [AG555],formation of varicosities in locally NGF-deprived axons,"[1]; 30 μM SB415, 15 μM Act D in cell body compartment, 10 μM AG555, 30 μM SB239 in axon compartment",fewer varicosities
same,Axon Compartment (protection of NGF-deprived axons),[1]; inhibitor 10 μM in axon compartment,did not degenerate; also recorded: protected from local degeneration; also recorded: Yes (4)
same,Cell Body Compartment (protection of NGF-deprived axons),[1]; inhibitor 10 μM in cell body compartment,failed to prevent degeneration; also recorded: No (4)
same,protection of cerebellar granule neurons from serum deprivation/KCl reduction,[2]; 1 μM,protect
same,protection of cerebellar granule neurons from serum deprivation/KCl reduction,[2]; 10 μM,protect
same,IC50,ErbB kinase [3],5 nM
C=CC(=O)Nc1ccc2ncnc(Nc3cccc(Br)c3)c2c1 [PD168393],Axon Compartment (protection of NGF-deprived axons),[1]; inhibitor 5 μM in axon compartment,Yes (1)
same,Cell Body Compartment (protection of NGF-deprived axons),[1]; inhibitor 5 μM in cell body compartment,No (1)
same,IC50,ErbB kinase [4],100 nM
"C#Cc1cccc(Nc2ncnc3cc(OCCOC)c(OCCOC)cc23)c1 [Tarceva, N-(3-ethynylphenyl)-6,7-bis(2-methoxyethoxy)quinazolin-4-amine]",patients with peripheral neuropathy,[5],16.3 % of patients
same,degeneration in dorsal spinal cord explants,[6],can delay; also recorded: blocks
CC[C@@]1(O)C(=O)OCc2c1cc1n(c2=O)Cc2cc3ccccc3nc2-1 [camptothecin],viability at 24 h,[7],79%
EGF: ErbB1 ligand added to DRG neurons,induction of axon degeneration,[8],does not cause degeneration
same,"ERK activity (phosphorylation of ERK, Western blot)",ERK,increased
Pertussis toxin,degeneration in neurons following NGF withdrawal,DRGs,decreases
